Data published in patent publication US20240294476A1, “CRYSTAL FORM OF QUINOLINE COMPOUND AND PROCESS FOR ITS PRODUCTION” (NISSAN CHEMICAL CORPORATION, priority 2003, published 2024).

Columns and labels:
[1] = Crystallinity by powder X-ray diffraction after drying; type: physicochemical; settings: dried in a usual manner, water content at most 4%
Description: (§1) However, in the conventional method for producing pitavastatin calcium, there has been no disclosure relating to the water content or the crystal form.

[2] = Stability data of drug substance (influence of water content), storage at 40° C.; type: physicochemical
Description: as §1

[3] = 40° C. air tight, Initial stage

## O=C(O)C[C@H](O)C[C@H](O)/C=C/c1c(C2CC2)nc2ccccc2c1-c1ccc(F)cc1 [Pitavastatin calcium, monocalcium bis[(3R,5S,6E)-7-(2-cyclopropyl-4-(4-fluorophenyl)-3-quinolyl)-3,5-dihydroxy-6-heptenoate]]
[1]
  crystallinity (powder X-ray diffraction): decrease to a state close to an amorphous state
[2]; 40° C. air tight, 30 Days
  Analogous substance (%): 0.208%
  Pitavastatin calcium (%): 99.42%
  Water content (%): 7.85%
[2]; 40° C. air tight, 60 Days
  Analogous substance (%): 0.189%
  Pitavastatin calcium (%): 99.79%
  Water content (%): 7.88%
[2]; 40° C. air tight, 90 Days
  Analogous substance (%): 0.211%
  Pitavastatin calcium (%): 99.64%
  Water content (%): 7.81%
[2]; [3]
  Analogous substance (%): 0.179%
  Pitavastatin calcium (%): 99.38%
  Water content (%): 7.89%
[2]; 40° C. open air, 30 Days
  Analogous substance (%): 0.742%
  Pitavastatin calcium (%): 99.26%
  Water content (%): 2.45%
[2]; 40° C. open air, 60 Days
  Analogous substance (%): 1.347%
  Pitavastatin calcium (%): 97.19%
  Water content (%): 1.99%
[2]; 40° C. open air, 90 Days
  Analogous substance (%): 2.099%
  Pitavastatin calcium (%): 96.49%
  Water content (%): 1.77%
[2]; 40° C. open air, Initial stage
  Analogous substance (%): 0.179%
  Pitavastatin calcium (%): 99.38%
  Water content (%): 7.89%
[2]; pitavastatin calcium which has become amorphous
  stability during the storage: very poor stability
